In ChEMBL document CHEMBL3621198, “Probing cytochrome P450-mediated activation with a truncated azinomycin analogue” (Medchemcomm, 2015):
Active and inactive are the calls of the source. The calls are words filed in the database; no cut-off is given here.

Key:
[1] = system: CHO; assay: Cytotoxicity against wild type CHO cells assessed as growth inhibition after 96 hrs by MTT assay; assay type: functional, cell-based; details: Cricetulus griseus
[2] = molecular target: T1, Cytochrome P450 1B1 (Homo sapiens, UniProt Q16678); assay: Drug level in presence of CYP1B1 (unknown origin) expressed in bactosomes treated with 1-amino-3-methyl-1-oxobut-3-en-2-yl 3-methoxy-5-methyl-1-naphthoate measured for 180 mins by LC/MS/MS analysis; assay type: ADME; details: recombinant enzyme, 3 h
T1 sequence (Q16678 whole entry): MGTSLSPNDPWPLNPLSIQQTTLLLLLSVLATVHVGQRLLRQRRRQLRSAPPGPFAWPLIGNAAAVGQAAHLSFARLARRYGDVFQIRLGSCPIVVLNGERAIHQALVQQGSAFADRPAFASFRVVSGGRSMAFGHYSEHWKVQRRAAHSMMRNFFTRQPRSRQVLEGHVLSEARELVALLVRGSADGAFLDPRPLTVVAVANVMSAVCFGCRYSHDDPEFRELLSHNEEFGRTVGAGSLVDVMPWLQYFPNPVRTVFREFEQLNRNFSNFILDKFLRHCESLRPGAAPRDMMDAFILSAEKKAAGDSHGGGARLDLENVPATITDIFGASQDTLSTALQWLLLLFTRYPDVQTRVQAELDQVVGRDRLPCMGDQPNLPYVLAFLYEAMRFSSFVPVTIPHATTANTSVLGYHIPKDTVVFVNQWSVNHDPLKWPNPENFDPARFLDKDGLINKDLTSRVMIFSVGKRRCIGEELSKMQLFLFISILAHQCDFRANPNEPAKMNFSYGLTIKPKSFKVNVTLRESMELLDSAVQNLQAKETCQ

[3] = molecular target: T2, Cytochrome P450 1A1 (Homo sapiens, UniProt P04798); assay: Drug level in presence of CYP1A1 (unknown origin) expressed in bactosomes treated with 1-amino-3-methyl-1-oxobut-3-en-2-yl 3-methoxy-5-methyl-1-naphthoate measured for 180 mins by LC/MS/MS analysis; assay type: ADME; details: recombinant enzyme, 3 h
T2 sequence (P04798 whole entry): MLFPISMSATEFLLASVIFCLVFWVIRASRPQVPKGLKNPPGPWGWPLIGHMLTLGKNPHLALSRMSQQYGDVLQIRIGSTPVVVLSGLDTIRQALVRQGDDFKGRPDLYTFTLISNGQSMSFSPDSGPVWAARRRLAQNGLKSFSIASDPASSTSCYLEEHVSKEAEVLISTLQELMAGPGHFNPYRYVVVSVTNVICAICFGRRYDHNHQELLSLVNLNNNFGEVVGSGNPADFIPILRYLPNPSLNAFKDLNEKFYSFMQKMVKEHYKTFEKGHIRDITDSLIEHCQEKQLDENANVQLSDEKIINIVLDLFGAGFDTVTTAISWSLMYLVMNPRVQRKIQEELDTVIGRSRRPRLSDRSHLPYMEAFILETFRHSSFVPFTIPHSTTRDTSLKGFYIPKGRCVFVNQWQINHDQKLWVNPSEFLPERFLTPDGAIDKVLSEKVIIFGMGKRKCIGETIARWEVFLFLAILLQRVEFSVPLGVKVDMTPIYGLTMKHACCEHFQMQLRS

[4] = system: CHO; assay: Cytotoxicity against CHO cells transfected with CYP1A1 assessed as growth inhibition after 96 hrs by MTT assay; assay type: functional, cell-based; details: Cricetulus griseus
[5] = molecular target: T3, Cytochrome P450 3A4 (Homo sapiens, UniProt P08684); assay: Drug level in presence of CYP3A4 (unknown origin) expressed in bactosomes treated with 1-amino-3-methyl-1-oxobut-3-en-2-yl 3-methoxy-5-methyl-1-naphthoate measured for 180 mins by LC/MS/MS analysis; assay type: ADME; details: recombinant enzyme, 3 h
T3 sequence (P08684 whole entry): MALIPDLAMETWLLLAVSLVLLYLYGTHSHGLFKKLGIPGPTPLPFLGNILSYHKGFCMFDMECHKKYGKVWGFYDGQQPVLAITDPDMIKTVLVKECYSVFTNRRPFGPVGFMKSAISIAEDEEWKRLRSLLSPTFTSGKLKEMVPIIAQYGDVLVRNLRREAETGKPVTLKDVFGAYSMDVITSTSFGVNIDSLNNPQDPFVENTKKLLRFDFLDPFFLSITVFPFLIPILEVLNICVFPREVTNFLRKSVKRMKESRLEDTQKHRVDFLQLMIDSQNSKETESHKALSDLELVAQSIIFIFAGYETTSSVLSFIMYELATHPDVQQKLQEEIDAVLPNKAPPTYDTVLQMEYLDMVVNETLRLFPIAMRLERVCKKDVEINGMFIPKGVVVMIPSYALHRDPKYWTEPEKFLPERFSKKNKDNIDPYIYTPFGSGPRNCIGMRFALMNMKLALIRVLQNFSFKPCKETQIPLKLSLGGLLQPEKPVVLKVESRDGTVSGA

[6] = system: CHO; assay: Cytotoxicity against wild type CHO cells assessed as growth inhibition preincubated with CYP3A4 expressed in bactosomes for 1 hr followed by cell addition measured after 96 hrs by MTT assay; assay type: functional, cell-based; details: Cricetulus griseus
[7] = system: SGC-7901; assay: Cytotoxicity against human SGC7901 cells expressing CYP1A1 mRNA assessed as growth inhibition after 96 hrs by MTT assay; assay type: functional, cell-based
[8] = system: CHO; assay: Cytotoxicity against wild type CHO cells assessed as growth inhibition preincubated with CYP1A2 expressed in bactosomes for 1 hr followed by cell addition measured after 96 hrs by MTT assay; assay type: functional, cell-based; details: Cricetulus griseus
[9] = system: CHO; assay: Potentiation factor, ratio of IC50 for wild type CHO cells in absence of CYP1A1 expressed in bactosomes to IC50 for wild type CHO cells in presence of CYP1A1 expressed in bactosomes; assay type: functional, Cricetulus griseus
[10] = system: SGC-7901; assay: Cytotoxicity against human SGC7901 cells expressing CYP1A1 protein assessed as growth inhibition after 96 hrs by MTT assay; assay type: functional, cell-based
[11] = system: CHO; assay: Potentiation factor, ratio of IC50 for wild type CHO cells in absence of CYP3A4 expressed in bactosomes to IC50 for wild type CHO cells in presence of CYP3A4 expressed in bactosomes; assay type: functional, Cricetulus griseus
[12] = system: CHO; assay: Cytotoxicity against wild type CHO cells assessed as growth inhibition preincubated with CYP1A1 expressed in bactosomes for 1 hr followed by cell addition measured after 96 hrs by MTT assay; assay type: functional, cell-based; details: Cricetulus griseus
[13] = system: CHO; assay: Cytotoxicity against wild type CHO cells assessed as growth inhibition preincubated with CYP1B1 expressed in bactosomes for 1 hr followed by cell addition measured after 96 hrs by MTT assay; assay type: functional, cell-based; details: Cricetulus griseus
[14] = system: SGC-7901; assay: Cytotoxicity against human SGC7901 cells expressing CYP3A4 protein assessed as growth inhibition after 96 hrs by MTT assay; assay type: functional, cell-based
[15] = system: CHO; assay: Potentiation factor, ratio of IC50 for wild type CHO cells in absence of CYP1B1 expressed in bactosomes to IC50 for wild type CHO cells in presence of CYP1B1 expressed in bactosomes; assay type: functional, Cricetulus griseus
[16] = system: MKN-45; assay: Cytotoxicity against human MKN45 cells expressing CYP3A4 protein assessed as growth inhibition after 96 hrs by MTT assay; assay type: functional, cell-based
[17] = system: SW480; assay: Cytotoxicity against human SW480 cells transfected with CYP2W1 assessed as growth inhibition at 0.001 to 100 uM after 96 hrs by MTT assay; assay type: functional, cell-based
[18] = system: MKN-45; assay: Cytotoxicity against human MKN45 cells expressing CYP3A4 mRNA assessed as growth inhibition after 96 hrs by MTT assay; assay type: functional, cell-based
[19] = system: CHO; assay: Induction of DNA damage in wild type CHO cells assessed as DNA interstrand cross-links by measuring decrease in mean tail moment at 50 uM after 1 hr by alkaline comet assay in presence of CYP3A4 expressed in bactosomes; assay type: functional, cell-based; details: Cricetulus griseus
[20] = molecular target: T2, Cytochrome P450 1A1; assay: Drug metabolism assessed as CYP1A1 (unknown origin) expressed in bactosomes-mediated (1R)-2-amino-1-(2-methyloxiran-2-yl)-2-oxoethyl 3-methoxy-5-methyl-1-naphthoate formation measured for 180 mins by LC/MS/MS analysis; assay type: ADME; details: recombinant enzyme, 3 h
[21] = system: CHO; assay: Induction of DNA damage in wild type CHO cells assessed as DNA single strand breaks at 50 uM after 1 hr by alkaline comet assay in absence of CYP3A4 expressed in bactosomes; assay type: functional, cell-based; details: Cricetulus griseus
[22] = system: CHO; assay: Potentiation factor, ratio of IC50 for wild type CHO cells in absence of CYP2D6 expressed in bactosomes to IC50 for wild type CHO cells in presence of CYP2D6 expressed in bactosomes; assay type: functional, Cricetulus griseus
[23] = molecular target: T1, Cytochrome P450 1B1; assay: Drug metabolism assessed as CYP1B1 (unknown origin) expressed in bactosomes-mediated (1R)-2-amino-1-(2-methyloxiran-2-yl)-2-oxoethyl 3-methoxy-5-methyl-1-naphthoate/(1S)-2-amino-1-(2-methyloxiran-2-yl)-2-oxoethyl 3-methoxy-5-methyl-1-naphthoate formation measured for 180 mins by LC/MS/MS analysis; assay type: ADME; details: recombinant enzyme, 3 h
[24] = system: MKN-45; assay: Cytotoxicity against human MKN45 cells expressing CYP1A1 protein assessed as growth inhibition after 96 hrs by MTT assay; assay type: functional, cell-based
[25] = system: CHO; assay: Cytotoxicity against wild type CHO cells assessed as growth inhibition preincubated with CYP2D6 expressed in bactosomes for 1 hr followed by cell addition measured after 96 hrs by MTT assay; assay type: functional, cell-based; details: Cricetulus griseus
[26] = system: CHO; assay: Induction of DNA damage in wild type CHO cells assessed as DNA double strand breaks by measuring increase in mean tail moment at 50 uM after 1 hr by neutral comet assay in presence of CYP3A4 expressed in bactosomes; assay type: functional, cell-based; details: Cricetulus griseus
[27] = system: CHO; assay: Induction of DNA damage in wild type CHO cells assessed as DNA single strand breaks at 50 uM after 1 hr by alkaline comet assay in presence of CYP3A4 expressed in bactosomes; assay type: functional, cell-based; details: Cricetulus griseus
[28] = system: CHO; assay: Induction of DNA damage in wild type CHO cells assessed as DNA interstrand cross-links by measuring decrease in mean tail moment at 50 uM after 1 hr by alkaline comet assay in absence of CYP3A4 bactosomes; assay type: functional, cell-based; details: Cricetulus griseus
[29] = system: CHO; assay: Induction of DNA damage in wild type CHO cells assessed as DNA double strand breaks by measuring increase in mean tail moment at 50 uM after 1 hr by neutral comet assay in absence of CYP3A4 expressed in bactosomes; assay type: functional, cell-based; details: Cricetulus griseus
[30] = system: MKN-45; assay: Cytotoxicity against human MKN45 cells expressing CYP1A1 mRNA assessed as growth inhibition after 96 hrs by MTT assay; assay type: functional, cell-based
[31] = system: CHO; assay: Potentiation factor, ratio of IC50 for wild type CHO cells in absence of CYP1A2 expressed in bactosomes to IC50 for wild type CHO cells in presence of CYP1A2 expressed in bactosomes; assay type: functional, Cricetulus griseus
[32] = molecular target: T3, Cytochrome P450 3A4; assay: Drug metabolism assessed as CYP3A4 (unknown origin) expressed in bactosomes-mediated (1S)-2-amino-1-(2-methyloxiran-2-yl)-2-oxoethyl 3-methoxy-5-methyl-1-naphthoate formation measured for 180 mins by LC/MS/MS analysis; assay type: ADME; details: recombinant enzyme, 3 h
[33] = system: SGC-7901; assay: Cytotoxicity against human SGC7901 cells expressing CYP3A4 mRNA assessed as growth inhibition after 96 hrs by MTT assay; assay type: functional, cell-based

## COc1cc(C(=O)O[C@@H](C(N)=O)C2(C)CO2)c2cccc(C)c2c1 (some centres not stated)
[1]
  IC50: 5.7 µM
[2]
  Drug metabolism: metabolite_detected
[3]
  Drug metabolism: metabolite_detected
[4]
  IC50: 6 µM

## Cc1ccc(C(=O)O[C@@H](C(N)=O)C2(C)CO2)c2ccccc12 (some centres not stated)
[1]
  IC50: 5 µM
[4]
  IC50: 9 µM

## C=C(C)[C@@H](OC(=O)c1ccc(C)c2ccccc12)C(N)=O
[1]
  IC50: > 100 µM
[4]
  IC50: > 100 µM

## CC1([C@@H](OC(=O)c2ccc(F)c3ccccc23)C(N)=O)CO1 (some centres not stated)
[1]
  IC50: 7 µM
[4]
  IC50: 2 µM

## COc1ccc2c(OC)ccc(C(=O)O[C@H](C(N)=O)C3(C)CO3)c2c1 (some centres not stated)
[1]
  IC50: 6 µM
[4]
  IC50: 3 µM

## Cc1ccc(C(=O)O[C@H](C(N)=O)C2(C)CO2)c2ccccc12 (some centres not stated)
[1]
  IC50: 6 µM
[4]
  IC50: 3 µM

## C=C(C)[C@@H](OC(=O)c1cccc2ccccc12)C(N)=O
[1]
  IC50: > 100 µM
[4]
  IC50: > 100 µM

## C=C(C)[C@@H](OC(=O)c1ccc(OC)c2ccc(OC)cc12)C(N)=O
[1]
  IC50: > 100 µM
[4]
  IC50: > 100 µM

## CC1([C@H](OC(=O)c2ccc(F)c3ccccc23)C(N)=O)CO1 (some centres not stated)
[1]
  IC50: 7 µM
[4]
  IC50: 3 µM

## C=C(C)[C@@H](OC(=O)c1ccc(F)c2ccccc12)C(N)=O
[1]
  IC50: > 100 µM
[4]
  IC50: > 100 µM

## COc1cc(C(=O)O[C@H](C(N)=O)C2(C)CO2)c2cccc(C)c2c1 (some centres not stated)
[1]
  IC50: 2.8 µM
[2]
  Drug metabolism: metabolite_detected
[4]
  IC50: 3.2 µM
[5]
  Drug metabolism: metabolite_detected

## COc1ccc2c(OC)ccc(C(=O)O[C@@H](C(N)=O)C3(C)CO3)c2c1 (some centres not stated)
[1]
  IC50: 3 µM
[4]
  IC50: 9 µM

## C=C(C)[C@@H](OC(=O)c1cc(OC)cc2c(C)cccc12)C(N)=O
[6]
  IC50: 3.34 µM
[1]
  IC50: 81.6 µM
[7]
  growth inhibition (GI): Dose-dependent effect
[8]
  IC50: 20.3 µM
[9]
  Ratio IC50: 5.8
[10]
  growth inhibition (GI): Dose-dependent effect
[11]
  Ratio IC50: 24.4
[12]
  IC50: 14.2 µM
[13]
  IC50: 11.8 µM
[14]
  growth inhibition (GI): Dose-dependent effect
[15]
  Ratio IC50: 7
[16]
  growth inhibition (GI): Dose-dependent effect
[17]
  growth inhibition (GI): inactive
[18]
  growth inhibition (GI): Dose-dependent effect
[19]
  Activity: Active
[20]
  Drug metabolism: metabolite_detected
[21]
  Activity: inactive
[22]
  Ratio IC50: 2.9
[23]
  Drug metabolism: metabolite_detected
[24]
  growth inhibition (GI): Dose-dependent effect
[4]
  IC50: 6.3 µM
[25]
  IC50: 28.3 µM
[26]
  Activity: inactive
[27]
  Activity: Active
[28]
  Activity: inactive
[29]
  Activity: inactive
[30]
  growth inhibition (GI): Dose-dependent effect
[31]
  Ratio IC50: 4
[32]
  Drug metabolism: metabolite_detected
[33]
  growth inhibition (GI): Dose-dependent effect

## CC1([C@@H](OC(=O)c2cccc3ccccc23)C(N)=O)CO1 (some centres not stated)
[1]
  IC50: 10 µM
[4]
  IC50: 9 µM

## CC1([C@H](OC(=O)c2cccc3ccccc23)C(N)=O)CO1 (some centres not stated)
[1]
  IC50: 10 µM
[4]
  IC50: 5 µM
